One data set concerns the target CSNK1G2 (Homo sapiens, UniProt P78368). The experiment in a line: Kinase panel: CSNK1G2. The format is biochemical. Conditions: 10 μM EP009. As to the method:
(§1) Achieving JAK3 selectivity remains a significant challenge in the development of new small molecules for the treatment of cancer and immune-derived diseases. As such, the inventors employed cell-based screening assays of small-molecule libraries based upon the chemical scaffold of the established JAK3 inhibitor NC1153 (Stepkowski et al., J Immunol. (2005), 175(7):4236-4246) EP009 (FIG. 2A) was selected as a lead compound due to improved intrinsic stability (>95% purity in various solvents at 37° C. for 24 hours; FIG. 3) and high-degree of JAK3 selectivity. To test JAK3 versus JAK2 specificity of EP009, the IL-2/JAK3-dependent Kit225, and IL-3/JAK2-dependent BaF/3 cell lines were used. Kit225 and BaF/3 cells growing in the presence of IL-2 or IL-3, respectively, were treated with ascending concentrations of EP009 for 12 hours and cellular JAK3 and JAK2 tyrosine phosphorylation levels detected by Western blot analysis (FIGS. 2B and 2C). Following densitometric analysis, EP009 was determined to dose-dependently reduce IL-2-mediated JAK3 tyrosine phosphorylation with a cellular 50% inhibitory concentration (IC50) between 10 and 20 μM (FIG. 2B). […] To globally evaluate specificity, the inhibitory activity of EP009 was measured against a panel of protein kinases distributed throughout the kinome using the scanEDGE profiling service (KINOMEscan). […]

The target in the next data set is PDGFRA (Homo sapiens, UniProt P16234). The experiment in a line: Kinase panel: PDGFRA. The format is biochemical. To be noted: 10 μM EP009. How it is done: as §1
The next data set concerns the target MET (Homo sapiens, UniProt P08581). In words: Kinase panel: MET. The format is biochemical. To be noted: 10 μM EP009. How it is done: as §1
The target in the next data set is CSNK1D (Homo sapiens, UniProt P48730). The experiment in a line: Kinase panel: CSNK1D. It is filed as biochemical. Conditions: 10 μM EP009. As to the method: as §1
In the next data set the target is MEK1 (Homo sapiens, UniProt Q02750). In words: Kinase panel: MEK1. Conditions: 10 μM EP009. The format is biochemical. As to the method: as §1
A further data set deals with T1, JAK2 (Mus musculus, UniProt Q62120).
T1 construct: cellular JAK3 and JAK2 tyrosine phosphorylation levels detected by Western blot analysis; endogenous in cells; host or cells: Ba/F3 (BaF/3)
In words: IL-3-induced JAK2 tyrosine phosphorylation in BaF/3 cells (IP/Western blot). The format is cell-based, murine. To be noted: 12 hours, concentrations up to 50 μM. As to the method:
(§2) FIGS. 2A-2F. Selective inhibition of JAK3 by EP009 results in loss of JAK3-dependent tumor cell line viability with no detectable off-target effects in key cell types. (A) Chemical structure of EP009 (M.W. 224.34). (B) Kit225 or (C) BaF/3 cells cultured in the presence of IL-2 or IL-3, respectively, were treated with vehicle (PBS; lane a) or increasing amounts of EP009 (0-50 μM; lanes b-h) for 12 hours. Cells were then lysed, clarified, and immunoprecipitated (IP) with anti-JAK3 (α-JAK3) or anti-JAK2 (α-JAK2), and subjected to Western blot (WB) analysis with anti-phosphotyrosine (α-pY). Blots were stripped and reprobed with corresponding antibody to verify equivalent protein loading. […] (E) Kit225 or BaF/3 cells were cultured with increasing amounts of EP009 (0-10 μM) for 72 hours and cell viability measured with the MTS tetrazolium salt assay. Values represent mean absorbance (OD490-OD650 nm) normalized to vehicle (PBS) treated control cells, while error bars represent the standard deviation (n=3). (F) HEK293, HEPG2, or naïve primary human PBMCs were cultured with increasing amounts of EP009 (0-10 μM) for 72 hours and cell viability measured with the MTS tetrazolium salt assay. Values represent mean absorbance (OD490-OD650 nm) normalized to vehicle (PBS) treated control cells, while error bars represent the standard deviation (n=3). […]
Background: Immunoblotting shows a protein as a band on a membrane.

The next data set has as its target IKK-alpha (Homo sapiens, UniProt O15111). The experiment in a line: Kinase panel: IKK-alpha. To be noted: 10 μM EP009. It is filed as biochemical. How it is done:
as §1

In another data set the target is BMPR2 (Homo sapiens, UniProt Q13873). In words: Kinase panel: BMPR2. Conditions: 10 μM EP009. The format is biochemical. As to the method:
as §1

The next data set has as its target MAPKAPK2 (Homo sapiens, UniProt P49137). In words: Kinase panel: MAPKAPK2. The format is biochemical. Conditions: 10 μM EP009. How it is done: as §1
Another data set concerns the target MEK2 (Homo sapiens, UniProt P36507). The experiment in a line: Kinase panel: MEK2. The format is biochemical. To be noted: 10 μM EP009. How it is done: as §1
Another data set deals with HEK293. The experiment in a line: HEK293 cell viability (MTS). Conditions: 72 hours, concentrations giving complete loss of JAK3-dependent cell viability (0-10 μM). It is filed as cell-based, human. How it is done:
as §2

Sequence of PDGFRA (P16234 24-1089): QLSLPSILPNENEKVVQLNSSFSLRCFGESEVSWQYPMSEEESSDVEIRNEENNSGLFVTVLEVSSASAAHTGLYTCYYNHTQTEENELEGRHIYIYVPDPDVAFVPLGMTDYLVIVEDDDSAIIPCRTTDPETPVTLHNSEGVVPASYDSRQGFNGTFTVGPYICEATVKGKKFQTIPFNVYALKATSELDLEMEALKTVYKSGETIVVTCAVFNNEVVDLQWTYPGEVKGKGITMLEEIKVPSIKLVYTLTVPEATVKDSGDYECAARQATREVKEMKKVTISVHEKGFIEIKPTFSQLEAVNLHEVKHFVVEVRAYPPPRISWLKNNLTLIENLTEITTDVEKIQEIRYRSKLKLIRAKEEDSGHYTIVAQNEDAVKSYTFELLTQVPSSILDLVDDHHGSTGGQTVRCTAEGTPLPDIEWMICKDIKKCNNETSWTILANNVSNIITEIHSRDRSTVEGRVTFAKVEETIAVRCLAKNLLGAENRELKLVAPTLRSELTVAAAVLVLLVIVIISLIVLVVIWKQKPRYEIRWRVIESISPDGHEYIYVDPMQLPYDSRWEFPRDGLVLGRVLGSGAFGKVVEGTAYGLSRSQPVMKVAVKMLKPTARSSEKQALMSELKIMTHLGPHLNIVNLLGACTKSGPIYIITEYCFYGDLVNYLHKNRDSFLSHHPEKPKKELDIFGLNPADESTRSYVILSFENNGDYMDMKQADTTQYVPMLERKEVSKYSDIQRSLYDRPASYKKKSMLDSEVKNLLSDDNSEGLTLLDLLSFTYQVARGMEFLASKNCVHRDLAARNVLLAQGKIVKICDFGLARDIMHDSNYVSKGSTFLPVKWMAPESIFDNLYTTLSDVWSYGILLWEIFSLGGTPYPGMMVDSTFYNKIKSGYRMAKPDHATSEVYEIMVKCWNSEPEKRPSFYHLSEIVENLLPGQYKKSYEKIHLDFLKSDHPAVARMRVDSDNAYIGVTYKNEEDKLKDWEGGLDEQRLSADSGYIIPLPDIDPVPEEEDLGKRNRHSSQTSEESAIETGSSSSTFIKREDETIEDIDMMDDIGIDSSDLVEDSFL
Sequence of CSNK1D (P48730 whole entry): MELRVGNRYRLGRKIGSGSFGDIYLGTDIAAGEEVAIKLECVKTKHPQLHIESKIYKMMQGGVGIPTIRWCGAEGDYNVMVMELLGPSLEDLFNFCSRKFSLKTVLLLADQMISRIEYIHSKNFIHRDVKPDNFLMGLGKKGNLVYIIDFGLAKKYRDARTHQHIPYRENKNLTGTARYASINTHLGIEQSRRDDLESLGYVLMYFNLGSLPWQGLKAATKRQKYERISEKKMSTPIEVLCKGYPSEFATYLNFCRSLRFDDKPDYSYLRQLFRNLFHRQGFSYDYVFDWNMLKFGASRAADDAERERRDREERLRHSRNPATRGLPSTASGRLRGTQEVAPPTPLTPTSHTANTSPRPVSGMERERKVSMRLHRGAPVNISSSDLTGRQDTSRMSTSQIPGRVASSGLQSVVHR
Sequence of MEK2 (P36507 whole entry): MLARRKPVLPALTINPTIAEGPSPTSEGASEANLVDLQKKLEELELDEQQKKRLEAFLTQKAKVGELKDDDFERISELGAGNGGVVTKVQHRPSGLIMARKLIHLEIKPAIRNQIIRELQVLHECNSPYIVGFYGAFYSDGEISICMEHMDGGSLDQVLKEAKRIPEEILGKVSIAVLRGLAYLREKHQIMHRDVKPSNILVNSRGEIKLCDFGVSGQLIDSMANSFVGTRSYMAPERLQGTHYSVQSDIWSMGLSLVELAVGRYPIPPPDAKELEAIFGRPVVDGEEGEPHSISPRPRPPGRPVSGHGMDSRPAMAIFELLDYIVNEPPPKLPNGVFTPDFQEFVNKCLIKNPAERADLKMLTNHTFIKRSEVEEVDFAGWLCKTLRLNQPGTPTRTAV
T1 sequence (Q62120 whole entry): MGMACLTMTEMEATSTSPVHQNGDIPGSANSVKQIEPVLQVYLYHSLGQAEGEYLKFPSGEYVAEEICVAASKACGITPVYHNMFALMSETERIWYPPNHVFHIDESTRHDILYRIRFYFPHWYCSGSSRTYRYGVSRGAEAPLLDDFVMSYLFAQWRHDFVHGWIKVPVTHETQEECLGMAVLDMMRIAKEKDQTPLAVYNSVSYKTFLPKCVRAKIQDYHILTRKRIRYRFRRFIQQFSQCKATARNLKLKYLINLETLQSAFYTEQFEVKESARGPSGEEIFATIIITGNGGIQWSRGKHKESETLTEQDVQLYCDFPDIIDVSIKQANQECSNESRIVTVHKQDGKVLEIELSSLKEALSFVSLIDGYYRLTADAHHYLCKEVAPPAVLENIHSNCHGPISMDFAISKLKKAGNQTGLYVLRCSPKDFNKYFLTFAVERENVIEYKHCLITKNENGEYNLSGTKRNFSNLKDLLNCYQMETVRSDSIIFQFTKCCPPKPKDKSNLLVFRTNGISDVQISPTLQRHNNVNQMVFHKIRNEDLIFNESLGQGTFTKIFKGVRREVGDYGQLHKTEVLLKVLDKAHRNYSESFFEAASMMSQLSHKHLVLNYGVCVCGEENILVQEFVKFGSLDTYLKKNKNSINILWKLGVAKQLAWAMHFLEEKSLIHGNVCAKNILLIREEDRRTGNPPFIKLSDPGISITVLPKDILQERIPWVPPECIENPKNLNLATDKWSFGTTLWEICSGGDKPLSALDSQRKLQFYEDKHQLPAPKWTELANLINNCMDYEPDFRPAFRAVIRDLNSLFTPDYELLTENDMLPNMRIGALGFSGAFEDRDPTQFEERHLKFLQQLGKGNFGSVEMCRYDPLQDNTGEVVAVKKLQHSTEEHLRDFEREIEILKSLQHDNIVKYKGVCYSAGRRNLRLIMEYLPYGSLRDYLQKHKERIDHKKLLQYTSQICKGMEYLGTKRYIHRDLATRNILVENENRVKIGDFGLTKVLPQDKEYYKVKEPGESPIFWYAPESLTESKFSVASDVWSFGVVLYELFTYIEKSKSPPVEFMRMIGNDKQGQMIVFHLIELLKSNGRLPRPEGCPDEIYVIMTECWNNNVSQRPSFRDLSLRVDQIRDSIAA
Sequence of MET (P08581 25-1390): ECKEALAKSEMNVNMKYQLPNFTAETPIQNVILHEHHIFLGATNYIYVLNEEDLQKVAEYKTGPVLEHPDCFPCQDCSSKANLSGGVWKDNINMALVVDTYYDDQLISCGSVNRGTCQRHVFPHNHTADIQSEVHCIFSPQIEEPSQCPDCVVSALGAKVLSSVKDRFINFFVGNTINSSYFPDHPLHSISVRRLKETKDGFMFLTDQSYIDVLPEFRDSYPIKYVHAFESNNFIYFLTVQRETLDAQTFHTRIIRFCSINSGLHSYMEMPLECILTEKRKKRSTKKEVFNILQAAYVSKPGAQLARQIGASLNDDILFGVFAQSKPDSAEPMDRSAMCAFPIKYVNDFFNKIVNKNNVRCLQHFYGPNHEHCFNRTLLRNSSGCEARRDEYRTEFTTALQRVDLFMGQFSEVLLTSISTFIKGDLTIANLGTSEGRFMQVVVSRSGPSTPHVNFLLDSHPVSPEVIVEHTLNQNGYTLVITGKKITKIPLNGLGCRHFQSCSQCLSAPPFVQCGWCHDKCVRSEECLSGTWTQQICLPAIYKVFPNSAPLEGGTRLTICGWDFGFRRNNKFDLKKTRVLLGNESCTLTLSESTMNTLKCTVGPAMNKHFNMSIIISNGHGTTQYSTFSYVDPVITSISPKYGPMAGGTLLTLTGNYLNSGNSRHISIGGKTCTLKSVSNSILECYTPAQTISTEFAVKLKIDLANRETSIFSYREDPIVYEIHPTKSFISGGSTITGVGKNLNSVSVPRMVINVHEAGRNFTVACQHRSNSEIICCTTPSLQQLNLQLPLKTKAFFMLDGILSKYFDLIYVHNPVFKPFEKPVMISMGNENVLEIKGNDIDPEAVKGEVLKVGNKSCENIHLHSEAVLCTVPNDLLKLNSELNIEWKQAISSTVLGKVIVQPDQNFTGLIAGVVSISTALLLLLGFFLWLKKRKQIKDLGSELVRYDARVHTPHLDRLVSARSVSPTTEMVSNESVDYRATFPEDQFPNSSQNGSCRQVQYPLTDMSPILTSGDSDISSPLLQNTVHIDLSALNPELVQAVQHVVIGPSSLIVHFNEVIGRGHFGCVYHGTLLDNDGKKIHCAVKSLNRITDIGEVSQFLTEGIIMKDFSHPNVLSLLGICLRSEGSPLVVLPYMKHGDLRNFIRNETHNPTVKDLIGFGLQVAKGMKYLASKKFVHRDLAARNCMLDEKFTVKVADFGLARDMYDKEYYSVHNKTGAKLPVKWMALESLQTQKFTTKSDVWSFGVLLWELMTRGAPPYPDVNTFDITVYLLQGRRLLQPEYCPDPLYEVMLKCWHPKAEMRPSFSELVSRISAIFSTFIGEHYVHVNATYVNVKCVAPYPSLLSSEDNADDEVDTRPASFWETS
Sequence of MEK1 (Q02750 whole entry): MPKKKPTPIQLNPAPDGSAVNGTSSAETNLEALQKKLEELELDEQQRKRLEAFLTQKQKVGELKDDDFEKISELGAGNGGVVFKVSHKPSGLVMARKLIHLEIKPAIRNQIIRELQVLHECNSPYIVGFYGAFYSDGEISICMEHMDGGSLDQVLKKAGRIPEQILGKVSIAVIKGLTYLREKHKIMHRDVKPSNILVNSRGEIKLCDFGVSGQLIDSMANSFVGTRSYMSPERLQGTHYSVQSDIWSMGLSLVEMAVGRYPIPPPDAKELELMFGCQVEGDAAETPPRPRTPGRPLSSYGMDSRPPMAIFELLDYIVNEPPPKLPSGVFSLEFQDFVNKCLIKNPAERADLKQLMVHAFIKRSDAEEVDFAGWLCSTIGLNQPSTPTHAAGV

Consider `C=C1CCCCCCCCCC(CO)C1=O` (centres unmarked) [EP009, 2-(Hydroxymethyl)-12-methylenecyclododecanone], for which the “Kinase Activity (% of Control)” value is given as 100 % of Control on CSNK1G2; 100 % of Control at PDGFRA; 89 % of Control on MET; 100 % of Control at CSNK1D; 71 % of Control on MEK1; 87 % of Control on IKK-alpha. Also, the “Kinase Activity (% of Control)” value is 75 % of Control on BMPR2, 100 % of Control on MAPKAPK2 and 84 % of Control at MEK2. For the same compound, the “effect on IL-3-induced JAK2 tyrosine phosphorylation” value at JAK2 is listed as “no detectable effect”. In addition, in the data set with HEK293, the “effect on HEK293 cell viability” value was “no detectable loss of cell viability”.

The record behind these values is patent US9371265B2, “Compositions and methods related to inhibitors of JAK kinase” (EP PHARMA, INC., priority 2012, dated 2016).
